ChEMBL document CHEMBL1817643, “Biochemical characterization of a novel type-II VEGFR2 kinase inhibitor: comparison of binding to non-phosphorylated and phosphorylated VEGFR2” (Bioorg Med Chem, 2011)

Legend:
[1] = target: T1, Vascular endothelial growth factor receptor 2 (Homo sapiens, UniProt P35968); test: Inhibition of human N-terminal His-tagged non-phosphorylated VEGFR2 in presence of ATP measured without preincubation by AlphaScreen analysis
[2] = target: T1, Vascular endothelial growth factor receptor 2; test: Inhibition of human N-terminal His-tagged non-phosphorylated VEGFR2 preincubated for 120 mins in presence of ATP by AlphaScreen analysis
[3] = target: T1, Vascular endothelial growth factor receptor 2; test: Inhibition of human N-terminal His-tagged phosphorylated VEGFR2 in presence of ATP measured without preincubation by AlphaScreen analysis
[4] = target: T1, Vascular endothelial growth factor receptor 2; test: Inhibition of human N-terminal His-tagged phosphorylated VEGFR2 preincubated for 120 mins in presence of ATP by AlphaScreen analysis
[5] = target: T1, Vascular endothelial growth factor receptor 2; test: Inhibition of human N-terminal His-tagged non-phosphorylated VEGFR2 after 10 mins by Global fit analysis
[6] = target: T1, Vascular endothelial growth factor receptor 2; test: Inhibition of human N-terminal His-tagged non-phosphorylated VEGFR2 after 60 mins by activity based 100 fold dilution assay
[7] = target: T1, Vascular endothelial growth factor receptor 2; test: Inhibition of human N-terminal His-tagged non-phosphorylated VEGFR2 after 60 mins by ligand displacement based enzyme-inhibitor dilution assay
[8] = target: T1, Vascular endothelial growth factor receptor 2; test: Binding affinity to human N-terminal His-tagged non-phosphorylated VEGFR2 by surface plasmon resonance analysis
[9] = target: T1, Vascular endothelial growth factor receptor 2
Description: Inhibition of human N-terminal His-tagged non-phosphorylated VEGFR2 assessed as dissociation half life

[10] = target: T1, Vascular endothelial growth factor receptor 2; remark: listed apart in the source
[11] = target: T1, Vascular endothelial growth factor receptor 2; remark: listed apart in the source
Description: Inhibition of human N-terminal His-tagged non-phosphorylated VEGFR2 assessed as dissociation half life after 60 mins by ligand displacement based enzyme-inhibitor dilution assay

[12] = target: T1, Vascular endothelial growth factor receptor 2; remark: listed apart in the source
[13] = target: T1, Vascular endothelial growth factor receptor 2; remark: listed apart in the source
Description: Inhibition of human N-terminal His-tagged phosphorylated VEGFR2 assessed as dissociation half life after 60 mins by ligand displacement based enzyme-inhibitor dilution assay

[14] = target: T1, Vascular endothelial growth factor receptor 2; remark: listed apart in the source
Description: Binding affinity to human N-terminal His-tagged non-phosphorylated VEGFR2 assessed as association constant by surface plasmon resonance analysis

[15] = target: T1, Vascular endothelial growth factor receptor 2; test: Binding affinity to human N-terminal His-tagged non-phosphorylated VEGFR2 assessed as dissociation rate constant by surface plasmon resonance analysis

T1 sequence (P35968 whole entry): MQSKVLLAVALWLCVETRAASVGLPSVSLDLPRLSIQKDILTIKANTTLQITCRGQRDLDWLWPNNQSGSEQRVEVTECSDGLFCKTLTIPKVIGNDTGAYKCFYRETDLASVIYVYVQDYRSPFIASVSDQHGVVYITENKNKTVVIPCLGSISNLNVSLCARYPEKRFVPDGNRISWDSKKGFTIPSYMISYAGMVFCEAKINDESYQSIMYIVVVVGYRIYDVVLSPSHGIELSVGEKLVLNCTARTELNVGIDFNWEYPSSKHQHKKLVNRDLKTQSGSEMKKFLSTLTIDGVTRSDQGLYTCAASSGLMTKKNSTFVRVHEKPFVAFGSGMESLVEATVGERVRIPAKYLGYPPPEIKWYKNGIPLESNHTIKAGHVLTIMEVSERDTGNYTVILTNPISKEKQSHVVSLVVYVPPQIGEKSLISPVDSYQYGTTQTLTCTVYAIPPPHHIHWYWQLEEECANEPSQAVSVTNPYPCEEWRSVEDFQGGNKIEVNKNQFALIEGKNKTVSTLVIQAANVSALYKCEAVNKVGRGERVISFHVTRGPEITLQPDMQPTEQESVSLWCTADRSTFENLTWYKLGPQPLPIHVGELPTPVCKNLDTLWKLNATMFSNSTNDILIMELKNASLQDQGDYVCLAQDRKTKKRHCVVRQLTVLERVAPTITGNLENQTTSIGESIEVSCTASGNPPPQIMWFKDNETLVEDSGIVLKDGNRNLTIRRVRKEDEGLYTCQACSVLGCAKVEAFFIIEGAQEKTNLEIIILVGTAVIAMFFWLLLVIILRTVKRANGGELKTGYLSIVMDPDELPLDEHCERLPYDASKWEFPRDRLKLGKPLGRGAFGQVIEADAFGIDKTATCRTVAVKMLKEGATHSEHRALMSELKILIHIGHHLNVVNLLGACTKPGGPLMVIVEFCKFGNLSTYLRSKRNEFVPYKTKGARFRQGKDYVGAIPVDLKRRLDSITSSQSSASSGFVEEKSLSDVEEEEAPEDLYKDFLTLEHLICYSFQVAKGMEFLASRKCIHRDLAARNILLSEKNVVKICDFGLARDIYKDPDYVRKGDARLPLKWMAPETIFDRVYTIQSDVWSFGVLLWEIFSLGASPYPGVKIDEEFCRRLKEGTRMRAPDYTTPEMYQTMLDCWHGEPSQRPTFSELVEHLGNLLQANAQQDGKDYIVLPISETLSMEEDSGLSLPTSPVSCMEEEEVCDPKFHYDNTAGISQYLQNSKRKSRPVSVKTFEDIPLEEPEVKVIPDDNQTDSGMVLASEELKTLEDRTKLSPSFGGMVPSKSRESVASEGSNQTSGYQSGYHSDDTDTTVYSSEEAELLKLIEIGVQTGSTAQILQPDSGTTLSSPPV

| IC50 [1] | IC50 [2] | IC50 [3] | Ki [3] | IC50 [4] | Ki [5] | Ki [6] | Ki [7] | Kd [8] | T1/2 [9] | Ka [14] | koff [15] | SMILES | T1/2 [10] | T1/2 [11] | T1/2 [12] | T1/2 [13] |
| --- | --- | --- | --- | --- | --- | --- | --- | --- | --- | --- | --- | --- | --- | --- | --- | --- |
| 4.7 nM | 0.033 nM | 46 nM | 23 nM | 14 nM | 4.6 nM | 0.024 nM | 0.044 nM | 19 nM | 1.3 min | 1.6 ×10⁵ /M/s | 0.0031 s⁻¹ | Cn1ccc2ncnc(Oc3ccc(NC(=O)Nc4cccc(C(F)(F)F)c4)c(F)c3)c21 | 260 min | 130 min | < 5 min | < 5 min |
|  |  |  |  |  |  |  |  |  |  |  |  | CN[C@@H]1C[C@H]2O[C@@](C)([C@@H]1OC)n1c3ccccc3c3c4c(c5c6ccccc6n2c5c31)C(=O)NC4 | < 5 min | < 5 min | < 5 min | < 5 min |
